Measured values: PubChem BioAssay (NCI)
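Each compound was tested at five concentrations against cells in 96-well plates for 48 hours. GI50 is the concentration that inhibits growth by half. At the TGI there is no net growth.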

Tests used:
Assay in all cases: NCI anticancer screen, dose series, 48 h
[1] = test system: A498 renal
[2] = test system: TK-10 renal
[3] = test system: HCT-116 colon
[4] = test system: CCRF-CEM leukemia
[5] = test system: MCF7 breast
[6] = test system: HOP-92 NSCLC
[7] = test system: HCC-2998 colon
[8] = test system: RPMI-8226 leukemia
[9] = test system: ACHN renal
[10] = test system: SK-MEL-28 melanoma
[11] = test system: COLO 205 colon
[12] = test system: MDA-MB-231 breast
[13] = test system: SNB-19 CNS
[14] = test system: OVCAR-8 ovarian
[15] = test system: SF-539 CNS
[16] = test system: PC-3 prostate
[17] = test system: MDA-N
[18] = test system: SF-295 CNS
[19] = test system: CAKI-1 renal
[20] = test system: SR leukemia
[21] = test system: KM12 colon
[22] = test system: SN12C renal
[23] = test system: OVCAR-5 ovarian
[24] = test system: U251 CNS
[25] = test system: DU-145 prostate
[26] = test system: OVCAR-4 ovarian
[27] = test system: MALME-3M melanoma
[28] = test system: NCI/ADR-RES ovarian
[29] = test system: LOX IMVI melanoma
[30] = test system: NCI-H460 lung
[31] = test system: T-47D breast
[32] = test system: MOLT-4 leukemia
[33] = test system: NCI-H226 lung
[34] = test system: NCI-H522 lung
[35] = test system: A549 NSCLC
[36] = test system: IGROV1 ovarian
[37] = test system: BT-549 breast
[38] = test system: HOP-62 NSCLC
[39] = test system: UACC-257 melanoma
[40] = test system: EKVX NSCLC
[41] = test system: M14 melanoma
[42] = test system: SK-OV-3 ovarian
[43] = test system: SF-268 CNS
[44] = test system: 786-0 renal
[45] = test system: HT29 colon
[46] = test system: MDA-MB-435
[47] = test system: UACC-62 melanoma
[48] = test system: HCT-15 colon
[49] = test system: HS 578T breast
[50] = test system: HL-60(TB) leukemia
[51] = test system: UO-31 renal
[52] = test system: NCI-H23 lung
[53] = test system: SK-MEL-2 melanoma
[54] = test system: SNB-75 CNS
[55] = test system: RXF 393 renal
[56] = test system: SW-620 colon
[57] = test system: OVCAR-3 ovarian
[58] = test system: K-562 leukemia
[59] = test system: SK-MEL-5 melanoma

Structure (SMILES): CC(C)(C)OC(=O)NC(Cc1cnc[nH]1)C(=O)N1CCCC1C(N)=O (stereo not drawn)
- TGI [1]: > 100 µM
- TGI [2]: > 100 µM
- TGI [3]: > 100 µM
- TGI [4]: > 100 µM
- TGI [5]: > 100 µM
- TGI [6]: > 100 µM
- TGI [7]: > 100 µM
- TGI [8]: > 100 µM
- TGI [9]: > 100 µM
- TGI [10]: > 100 µM
- TGI [11]: > 100 µM
- TGI [12]: > 100 µM
- TGI [13]: > 100 µM
- TGI [14]: > 100 µM
- TGI [15]: > 100 µM
- TGI [16]: > 100 µM
- TGI [17]: > 100 µM
- TGI [18]: > 100 µM
- TGI [19]: > 100 µM
- TGI [20]: > 100 µM
- TGI [21]: > 100 µM
- TGI [22]: > 100 µM
- TGI [23]: > 100 µM
- TGI [24]: > 100 µM
- TGI [25]: > 100 µM
- TGI [26]: > 100 µM
- TGI [27]: > 100 µM
- TGI [28]: > 100 µM
- TGI [29]: > 100 µM
- TGI [30]: > 100 µM
- TGI [31]: > 100 µM
- TGI [32]: > 100 µM
- TGI [33]: > 100 µM
- TGI [34]: > 100 µM
- TGI [35]: > 100 µM
- TGI [36]: > 100 µM
- TGI [37]: > 100 µM
- TGI [38]: > 100 µM
- TGI [39]: > 100 µM
- TGI [40]: > 100 µM
- TGI [41]: > 100 µM
- TGI [42]: > 100 µM
- TGI [43]: > 100 µM
- TGI [44]: > 100 µM
- TGI [45]: > 100 µM
- TGI [46]: > 100 µM
- TGI [47]: > 100 µM
- TGI [48]: > 100 µM
- TGI [49]: > 100 µM
- TGI [50]: > 100 µM
- TGI [51]: > 100 µM
- TGI [52]: > 100 µM
- TGI [53]: > 100 µM
- TGI [54]: > 100 µM
- TGI [55]: 92.3 µM
- TGI [56]: > 100 µM
- TGI [57]: > 100 µM
- TGI [58]: > 100 µM
- TGI [59]: > 100 µM

Structure (SMILES): Cn1cc(C[C@@H](N)C(=O)O)c2ccccc21
- TGI [1]: > 100 µM
- TGI [2]: > 100 µM
- TGI [3]: > 100 µM
- TGI [4]: > 100 µM
- TGI [5]: > 100 µM
- GI50 [6]: > 100 µM
- TGI [6]: > 100 µM
- TGI [7]: > 100 µM
- TGI [8]: > 100 µM
- TGI [9]: > 100 µM
- TGI [10]: > 100 µM
- TGI [11]: > 100 µM
- TGI [12]: > 100 µM
- TGI [13]: > 100 µM
- TGI [14]: > 100 µM
- TGI [15]: > 100 µM
- TGI [16]: > 100 µM
- TGI [17]: > 100 µM
- TGI [18]: > 100 µM
- TGI [19]: > 100 µM
- TGI [20]: > 100 µM
- TGI [21]: > 100 µM
- TGI [22]: > 100 µM
- TGI [23]: > 100 µM
- TGI [24]: > 100 µM
- TGI [25]: > 100 µM
- TGI [26]: > 100 µM
- TGI [27]: > 100 µM
- TGI [28]: > 100 µM
- TGI [29]: > 100 µM
- TGI [30]: > 100 µM
- TGI [31]: > 100 µM
- TGI [32]: > 100 µM
- TGI [33]: > 100 µM
- TGI [34]: > 100 µM
- TGI [35]: > 100 µM
- TGI [36]: > 100 µM
- TGI [37]: > 100 µM
- TGI [38]: > 100 µM
- TGI [39]: > 100 µM
- TGI [40]: > 100 µM
- TGI [41]: > 100 µM
- TGI [42]: > 100 µM
- TGI [43]: > 100 µM
- TGI [44]: > 100 µM
- TGI [45]: > 100 µM
- TGI [46]: > 100 µM
- TGI [47]: > 100 µM
- TGI [48]: > 100 µM
- GI50 [49]: > 100 µM
- TGI [49]: > 100 µM
- TGI [50]: > 100 µM
- TGI [51]: > 100 µM
- TGI [52]: > 100 µM
- TGI [53]: > 100 µM
- TGI [54]: > 100 µM
- TGI [55]: > 100 µM
- TGI [56]: > 100 µM
- TGI [57]: > 100 µM
- TGI [58]: > 100 µM
- GI50 [59]: > 100 µM
- TGI [59]: > 100 µM

Structure (SMILES): CC(=O)Nc1cc2c(cc1O)CC[C@@H]1[C@@H]2CC[C@]2(C)[C@@H](O)CC[C@@H]12
- TGI [1]: 70.7 µM
- TGI [2]: > 100 µM
- GI50 [3]: 39.8 µM
- TGI [3]: > 100 µM
- TGI [4]: > 100 µM
- TGI [5]: > 100 µM
- TGI [6]: > 100 µM
- TGI [7]: 82.4 µM
- TGI [8]: > 100 µM
- TGI [9]: > 100 µM
- TGI [10]: > 100 µM
- TGI [11]: 62.2 µM
- TGI [12]: > 100 µM
- TGI [13]: > 100 µM
- TGI [14]: > 100 µM
- TGI [15]: > 100 µM
- TGI [16]: > 100 µM
- TGI [17]: 52.1 µM
- TGI [18]: > 100 µM
- TGI [19]: > 100 µM
- TGI [20]: > 100 µM
- TGI [21]: 31.4 µM
- GI50 [22]: 48.5 µM
- TGI [22]: > 100 µM
- TGI [23]: > 100 µM
- TGI [24]: > 100 µM
- GI50 [25]: > 100 µM
- TGI [25]: > 100 µM
- TGI [26]: > 100 µM
- TGI [27]: > 100 µM
- TGI [28]: 55.9 µM
- TGI [29]: > 100 µM
- TGI [30]: > 100 µM
- TGI [31]: 95.8 µM
- TGI [32]: > 100 µM
- TGI [33]: > 100 µM
- TGI [34]: 81.5 µM
- TGI [35]: > 100 µM
- TGI [36]: > 100 µM
- TGI [37]: 86.3 µM
- TGI [38]: > 100 µM
- TGI [39]: > 100 µM
- TGI [40]: > 100 µM
- TGI [41]: > 100 µM
- TGI [42]: > 100 µM
- TGI [43]: 68.8 µM
- TGI [44]: > 100 µM
- TGI [45]: > 100 µM
- TGI [46]: 50.8 µM
- GI50 [47]: 31.2 µM
- TGI [47]: > 100 µM
- TGI [48]: 54.5 µM
- TGI [49]: > 100 µM
- TGI [50]: > 100 µM
- TGI [51]: 97.9 µM
- TGI [52]: > 100 µM
- TGI [55]: > 100 µM
- TGI [56]: 71.9 µM
- GI50 [57]: 9.2 µM
- TGI [57]: > 100 µM
- TGI [58]: > 100 µM
- TGI [59]: 59.8 µM
